Reference: US20230212131A1, “COLLAGEN 1 TRANSLATION INHIBITORS AND METHODS OF USE THEREOF” (Anima Biotech Inc., priority 2020, published 2023)

tested on: collagen 1 (COL1); assay: WI-38 collagen 1 inhibition assay; assay type: cell-based, human; settings: Cellular EC50, WI-38 cells; values are classes of LogEC50
From the text: All compounds were profiled for cellular potency in inhibition of collagen 1 (COL1) protein translation using a phenotypic screening platform.
WI-38 cells (ATCC® CCL-75™) were maintained in MEM EAGLE (NEAA) W. GLUTAMIN (Biological Industries, Cat. 06-1040-15-1A) containing 10% fetal bovine serum (FBS) and 1% Penicillin-Streptomycin Solution. To synchronize the cells (cell cycle synchronization) prior to induction of collagen synthesis, the cells were starved using DMEM-low glucose supplemented with 0.25% FBS for two hours and then without FBS for 24 hours. To induce collagen synthesis, the cells were treated with a collagen induction cocktail for the indicated time. Compounds were added with induction.
Cells in 96-well or 384-well plates were fixed for 20 min in 4% paraformaldehyde (PFA, ENCO, Cat. sc-281692). Following two washes with 1×PBS, cells were treated with hydrogen peroxide (Acros, Cat: 7722-84-1) for 10 minutes and then washed twice with 1×PBS. Cells were then incubated over-night at 4° C. with Anti-Collagen I (Sigma-Aldrich, Cat: C 2456) antibody and washed three times with 1×PBS. Cells were then incubated with a suitable secondary fluorescently-tagged antibody and nuclei stained with DAPI, for 1 hour, and then washed 3 times with 1×PBS.
Cell images were taken with Operetta (Perkin Elmer, USA), a wide-field fluorescence microscope at 20× magnification. After acquisition, the images were transferred to Columbus software (Perkin-Elmer) for image analysis. In Columbus, cells were identified by their nucleus, using the “Find Nuceli” module and cytoplasm was detected based on the secondary antibody channel. Subsequently, the fluorescent signal was enumerated in the identified cell region. Data was exported to a data analysis and visualization software, Tibco Spotfire, USA.

Row | SMILES | COL1 Efficacy (LogEC50)
1 | COc1ccc(C(=O)Nc2nc(-c3cccnc3)cs2)cc1 [Compound 316, 4-methoxy-N-[4-(3-pyridyl)thiazol-2-yl]benzamide] | ++ (++: −5 to −6)
2 | CN1CC2(C1)CN(c1ccc(C(=O)Nc3nc(-c4ccccc4Cl)cs3)nc1)C2 [compound 459] | − (−: inactive)
3 | COc1ncc(C(=O)Nc2nc(-c3cccnc3OC)cs2)cn1 [compound 356, 2-methoxy-N-[4-(2-methoxy-3-pyridyl)thiazol-2-yl]pyrimidine-5-carboxamide] | − (−: inactive)
4 | CN(C(=O)c1ccc(N2CCOCC2)cc1)c1nc(-c2ccccc2Cl)cs1 [Compound 399, N-(4-(2-chlorophenyl)thiazol-2-yl)-N-methyl-4-morpholinobenzamide] | ++ (++: −5 to −6)
5 | COc1ccc(C(=O)Nc2nc(-c3cccnc3C)cs2)cc1 [Compound 343, 4-methoxy-N-[4-(2-methyl-3-pyridyl)thiazol-2-yl]benzamide] | +++ (+++: <−6)
6 | CC(=O)NCc1ccccc1-c1csc(NC(=O)c2ccc(N3CCN(S(C)(=O)=O)CC3)cn2)n1 [compound 480] | − (−: inactive)
7 | CC(=O)N1CCN(c2ccc(C(=O)Nc3nc(-c4ccccc4Cl)cs3)s2)CC1 [Compound 463, 5-(4-acetylpiperazin-1-yl)-N-(4-(2-chlorophenyl)thiazol-2-yl)thiophene-2-carboxamide] | +++ (+++: <−6)
8 | CNCc1ccccc1-c1csc(NC(=O)c2ccc(N3CCN(S(C)(=O)=O)CC3)cn2)n1 [compound 457] | − (−: inactive)
9 | O=C(Nc1nc(-c2ccccc2Cl)cs1)C1CCC(N2CCOCC2)CC1 (stereo not drawn) [compound 432] | − (−: inactive)
10 | O=C(Nc1nc(-c2ccccc2Cl)c[nH]1)c1ccc(N2CCOCC2)cn1 [Compound 404, N-(4-(2-chlorophenyl)-1H-imidazol-2-yl)-5-morpholinopicolinamide] | +++ (+++: <−6)
11 | COc1ccc(C(=O)Nc2nc(-c3cnccc3OC)cs2)cc1 [Compound 326, 4-methoxy-N-[4-(4-methoxy-3-pyridyl)thiazol-2-yl]benzamide] | ++ (++: −5 to −6)
12 | CN1CCC(C(=O)Nc2nc(-c3ccccc3Cl)cs2)CC1 [compound 324, N-[4-(2-chlorophenyl)thiazol-2-yl]-1-methyl-piperidine-4-carboxamide] | ++ (++: −5 to −6)
13 | CN(C)C(=O)c1ccc(C(=O)Nc2nc(-c3ccccc3Cl)cs2)cc1 [compound 389, N′-(4-(2-chlorophenyl)thiazol-2-yl)-N,N-dimethylterephthalamide] | ++ (++: −5 to −6)
14 | O=C(Nc1nc(-c2ccccc2Cl)cs1)c1ccc(C2CCOCC2)cn1 [Compound 381, N-(4-(2-chlorophenyl)thiazol-2-yl)-5-(tetrahydro-2H-pyran-4-yl)picolinamide] | +++ (+++: <−6)
15 | Cc1ccc(C(=O)Nc2nc(-c3ccccc3N3CCC3)cs2)cn1 [compound 350, N-[4-[2-(azetidin-1-yl)phenyl]thiazol-2-yl]-6-methyl-pyridine-3-carboxamide] | − (−: inactive)
16 | O=C(Nc1nc(-c2ccccc2Cl)cs1)c1ccc(N2CCC3(CC2)COC3)cn1 [Compound 448, N-(4-(2-chlorophenyl)thiazol-2-yl)-5-(2-oxa-7-azaspiro[3.5]nonan-7-yl)picolinamide] | +++ (+++: <−6)
17 | O=C(Nc1nc(-c2ccccc2Cl)cs1)c1ccc(C2CCS(=O)(=O)CC2)cc1 [compound 382, N-(4-(2-chlorophenyl)thiazol-2-yl)-4-(1,1-dioxidotetrahydro-2H-thiopyran-4-yl)benzamide] | +++ (+++: <−6)
18 | COc1ccc(C(=O)Nc2nc(-c3cccc4c3OCCO4)cs2)cc1 [Compound 337, N-[4-(2,3-dihydro-1,4-benzodioxin-5-yl)thiazol-2-yl]-4-methoxy-benzamide] | ++ (++: −5 to −6)
19 | CS(=O)(=O)N1CCN(c2ccc(C(=O)Nc3nc(-c4ccccc4Cl)cs3)cc2)CC1 [compound 365, N-[4-(2-chlorophenyl)thiazol-2-yl]-4-(4-methylsulfonylpiperazin-1-yl)benzamide] | +++ (+++: <−6)
20 | O=C(Nc1nc(-c2cc(Cl)sc2Cl)cs1)c1ccccc1 [compound 312] | ++ (++: −5 to −6)

Row | SMILES | COL1 Efficacy (LogEC50)
21 | O=C(Nc1nc(N2CCCC2=O)cs1)c1ccc(N2CCOCC2)cn1 [Compound 395, 5-morpholino-N-(4-(2-oxopyrrolidin-1-yl)thiazol-2-yl)picolinamide] | + (+: >−5)
22 | O=C(Nc1nc(-c2ccccc2Cl)cs1)C12CC(N3CCOCC3)(C1)C2 [Compound 416, N-(4-(2-chlorophenyl)thiazol-2-yl)-3-morpholinobicyclo[1.1.1]pentane-1-carboxamide] | ++ (++: −5 to −6)
23 | O=C(Nc1nc(-c2ccccc2Cl)cs1)c1ccc(N2CCCC(O)C2)cn1 (stereo not drawn) [compound 477, N-(4-(2-chlorophenyl)thiazol-2-yl)-5-(3-hydroxypiperidin-1-yl)picolinamide] | +++ (+++: <−6)
24 | O=C(Nc1nc(-c2ccccc2Cl)cs1)c1ccc(N2CCOCC2)cn1 [compound 339, N-[4-(2-chlorophenyl)thiazol-2-yl]-5-morpholino-pyridine-2-carboxamide] | +++ (+++: <−6)
25 | COCCOCc1ccccc1-c1csc(NC(=O)c2ccc(N3CCOCC3)cc2)n1 [Compound 379, N-(4-(2-((2-methoxyethoxy)methyl)phenyl)thiazol-2-yl)-4-morpholinobenzamide] | ++ (++: −5 to −6)
26 | O=C(Nc1nc(-c2ccccc2Cl)cs1)c1ccc(C(=O)N2CCS(=O)(=O)CC2)cc1 [compound 385, N-(4-(2-chlorophenyl)thiazol-2-yl)-4-(1,1-dioxidothiomorpholine-4-carbonyl)benzamide] | ++ (++: −5 to −6)
27 | COCc1cc(N2CCOCC2)ccc1C(=O)Nc1nc(-c2ccccc2Cl)cs1 [compound 436] | − (−: inactive)
28 | Cc1ccc(C(=O)Nc2nc(-c3cncnc3C)cs2)cn1 [Compound 347, 6-methyl-N-[4-(4-methylpyrimidin-5-yl)thiazol-2-yl]pyridine-3-carboxamide] | ++ (++: −5 to −6)
29 | O=C(Nc1nc(-c2ccccc2Cl)cs1)c1ccc(N2CCNCC2)cc1 [Compound 334, N-(4-(2-chlorophenyl)thiazol-2-yl)-4-(piperazin-1-yl)benzamide] | +++ (+++: <−6)
30 | CS(=O)(=O)N1CCN(c2ccc(C(=O)Nc3nc(-c4ccccc4Cl)cs3)nc2)CC1 [Compound 403, N-(4-(2-chlorophenyl)thiazol-2-yl)-5-(4-(methylsulfonyl)piperazin-1-yl)picolinamide] | +++ (+++: <−6)
31 | CS(=O)(=O)N1CCN(C2CCC(C(=O)Nc3nc(-c4ccccc4Cl)cs3)CC2)CC1 (single isomer, unassigned) [Compound 435, (1r,4r)-N-(4-(2-chlorophenyl)thiazol-2-yl)-4-(4-(methylsulfonyl)piperazin-1-yl)cyclohexane-1-carboxamide] | ++ (++: −5 to −6)
32 | O=C(Nc1nc(-c2ccccc2Cl)cs1)C1CC(C(=O)N2CCOCC2)C1 (stereo not drawn) [compound 427] | − (−: inactive)
33 | COCCOc1ccccc1-c1csc(NC(=O)c2ccc(C)nc2)n1 [Compound 341, N-[4-[2-(2-methoxyethoxy)phenyl]thiazol-2-yl]-6-methyl-pyridine-3-carboxamide] | ++ (++: −5 to −6)
34 | CN(C)CCC(=O)N1CCN(c2ccc(C(=O)Nc3nc(-c4ccccc4Cl)cs3)nc2)CC1 [Compound 444, N-(4-(2-chlorophenyl)thiazol-2-yl)-5-(4-(3-(dimethylamino)propanoyl)piperazin-1-yl)picolinamide] | +++ (+++: <−6)
35 | O=C(Nc1nc(-c2ccccc2Cl)cs1)N1CCC(N2CCOCC2)CC1 [compound 360, N-[4-(2-chlorophenyl)thiazol-2-yl]-4-morpholino-piperidine-1-carboxamide] | + (+: >−5)
36 | CN1CCC[C@H]1C(=O)N1CCN(c2ccc(C(=O)Nc3nc(-c4ccccc4Cl)cs3)nc2)CC1 [Compound 466, N-(4-(2-chlorophenyl)thiazol-2-yl)-5-(4-(methylprolyl)piperazin-1-yl)picolinamide] | +++ (+++: <−6)
37 | O=C(Nc1nc(-c2ccccc2Cl)cs1)c1ccc(N2CCC[C@@H](O)C2)cn1 [compound 487, (R)—N-(4-(2-chlorophenyl)thiazol-2-yl)-5-(3-hydroxypiperidin-1-yl)picolinamide] | +++ (+++: <−6)
38 | O=C(Nc1nc(-c2ccccc2Cl)cs1)c1ccc(N2CCCC2=O)cn1 [compound 465] | − (−: inactive)
39 | O=C(Nc1nc(-c2ccccc2Cl)cs1)C1CC(C(=O)N2CCOCC2)C1 (stereo not drawn) [compound 426] | − (−: inactive)
